Reference: PMC5159239 (Cell host & microbe, 2016)

Legend:
[1] = target: UL37C (571-1123) (Human alphaherpesvirus 1 strain 17, UniProt P10221); experiment: tandem mass spectrometry of cysteine labelling; format: binding; settings: covalent at C819; 45 min; also tested at 1 µM
[2] = target: the molecule itself; experiment: SEC

Chain of UL37C (571-1123) (P10221 571-1123): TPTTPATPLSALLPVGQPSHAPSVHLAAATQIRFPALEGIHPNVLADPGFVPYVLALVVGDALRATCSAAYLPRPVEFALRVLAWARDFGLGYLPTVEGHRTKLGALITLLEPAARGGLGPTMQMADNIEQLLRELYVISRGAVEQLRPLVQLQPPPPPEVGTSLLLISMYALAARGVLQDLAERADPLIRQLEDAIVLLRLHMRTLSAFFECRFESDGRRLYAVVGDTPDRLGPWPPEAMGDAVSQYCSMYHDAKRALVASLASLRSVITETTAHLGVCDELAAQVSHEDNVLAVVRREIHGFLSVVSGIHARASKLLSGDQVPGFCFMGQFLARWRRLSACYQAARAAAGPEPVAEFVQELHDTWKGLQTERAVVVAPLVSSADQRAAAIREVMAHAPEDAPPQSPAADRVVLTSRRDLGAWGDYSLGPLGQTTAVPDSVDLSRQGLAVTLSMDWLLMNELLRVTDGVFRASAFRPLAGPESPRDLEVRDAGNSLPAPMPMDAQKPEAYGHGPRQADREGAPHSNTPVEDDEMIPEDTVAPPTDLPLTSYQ

Molecule	% C819 labelled at 10 μM [1] [%]	binding result [2]
O=C(CCl)NCO [2-Chloro-N-(hydroxymethyl)acetamide]	42.5	–
RIG-I-QQ (natural protein) MTTEQRRSLQAFQDYIRKTLDPTYILSYMAPWFREEEVQYIQAEKNNKGPMEAATLFLKFLLELQEEGWFRGFLDALDHAGYSGLYEAIESWDFKKIEKLEEYRLLLKRLQPEFKTRIIPTDIISDLSECLINQECEEILQICSTKGMMAGAEKLVECLLRSDKENWPKTLKLALEKERNKFSELWIVEKGIKDVETEDLEDKMETSDIQIFYQEDPECQNLSENSCPPSEVSDTNLYSPFKPRNYQLELALPAMKGKNTIICAPTGCGKTFVSLLICEHHLKKFPQGQKGKVVFFANQIPVYEQQKSVFSKYFERHGYRVTGISGATAENVPVEQIVENNDIIILTPQILVNNLKKGTIPSLSIFTLMIFDECHNTSKQHPYNMIMFNYLDQKLGGSSGPLPQVIGLTASVGVGDAKNTDEALDYICKLCASLDASVIATVKHNLEELEQVVYKPQKFFRKVESRISDKFKYIIAQLMRDTESLAKRICKDLEQLSQIQNREFGTQKYEQWIVTVQKACMVFQMPDKDEESRICKALFLYTSHLRKYQDALIISEHARMKDALDYLKDFFSNVRAAGFDEIEQDLTQRFEEKLQELESVSRDPSNENPKLEDLCFILQEEYHLNPETITILFVKTRALVDALKNWIEGNPKLSFLKPGILTGRGKTNQNTGMTLPAQKCILDAFKASGDHNILIATSVADEGIDIAQCNLVILYEYVGNVIKMIQTRGRGRARGSKCFLLTSNAGVIEKEQINMYKEKMMNDSILRLQTWDEAVFREKILHIQTHEKFIRDSQEKPKPVPDKENKKLLCRKCKALACYTADVRVIEECHYTVLGDAFKECFVSRPHPKPKQFSSFEKRAKIFCARQNCSHDWGIHVKYKTFEIPVIKIESFVVEDIATGVQTLYSKWKDFHFEKIPFDPAEMSK	–	binds
